The source of these data is patent US12297434B1, “Biomarker for predicting drug resistance of bruton's tyrosine kinase inhibitors and application thereof” (Beijing Friendship Hospital, Capital Medical University, priority 2024, dated 2025).

Holding throughout (format): cell-based, Human
Assay [1] relates to SUDHL2-R cells (zebutinib-resistant ABC-DLBCL cell line). The experiment in a line: CCK8 cell viability, zebutinib on SUDHL2-R. The source says:
(§1) Human ABC-DLBCL cell lines (SUDHL2, U2932 and OCI-LY10) are purchased from American Type Culture Collection (ATCC) cell bank. The BTK inhibitor-resistant ABC-DLBCL-R cell line is constructed according to the drug concentration gradient increment method, and the BTK inhibitor used in the present disclosure is zebutinib. […] All the patients were diagnosed according to the 2016 revision of the WHO classification of lymphoid neoplasms. Before the study, written informed consent was obtained from each patient and healthy volunteer.
(§2) The drug concentration gradient is used to induce zebutinib resistance to BTK inhibitor in ABC-DLBCL cell lines (SUDHL2, U2932 and OCI-LY10). Tumor cells in the logarithmic growth phase are taken, and zebutinib at a starting concentration of 2 micromoles per liter (μmol/L) (about 1/10 of the IC50 of the parental cell line) is added to act for 24 hours (h). […]
(§3) Cell activity is measured using a cell counting kit-8 (CCK-8, Dojindo, Japan). […] The absorbance at 450 nm is measured by ELX808 microplate spectrophotometer (BioTekInstruments, Winooski, VT, USA). Colony formation experiment: cells are inoculated into a 6-well plate with 500 cells per well, three copies in one group, and cultured for 10-14 days to form colonies, followed by […] in formaldehyde and staining with crystal violet, and the visible colonies are counted. […]

Another assay relates to SUDHL2 cells. The experiment in a line: CCK8 cell viability, zebutinib on SUDHL2. Conditions: parental ABC-DLBCL cell line SUDHL2, CCK8 method; read-out: half maximal inhibitory concentration (IC50).
Text: as §1, §2, §3
In general terms: Tetrazolium dyes change colour on reduction, which living cells bring about.

A further assay concerns U2932 cells. The experiment in a line: CCK8 cell viability, zebutinib on U2932. The following applies: parental ABC-DLBCL cell line U2932, CCK8 method; read-out: half maximal inhibitory concentration (IC50).
Text: as §1, §2, §3

The subject of assay [2] is OCI-LY10-R cells (zebutinib-resistant ABC-DLBCL cell line). As to the kind of experiment: CCK8 cell viability, zebutinib on OCI-LY10-R.
Text: as §1, §2, §3

In assay [3] the test system is U2932-R cells (zebutinib-resistant ABC-DLBCL cell line). The experiment in a line: CCK8 cell viability, zebutinib on U2932-R.
Text: as §1, §2, §3

A further assay deals with OCI-LY10 cells. As to the kind of experiment: CCK8 cell viability, zebutinib on OCI-LY10. Conditions: parental ABC-DLBCL cell line OCI-LY10, CCK8 method; read-out: half maximal inhibitory concentration (IC50).
Text: as §1, §2, §3

Take `C=CC(=O)N1CCC([C@@H]2CCNc3c(C(N)=O)c(-c4ccc(Oc5ccccc5)cc4)nn32)CC1` [zebutinib]: the “resistance index (RI)” value in assay [1] (RI=IC50 of drug-resistant cell line/IC50 of parental cell line, SUDHL2-R vs SUDHL2) was 5.28; in assay [2] (RI=IC50 of drug-resistant cell line/IC50 of parental cell line, OCI-LY10-R vs OCI-LY10), 5.23; in assay [3] (RI=IC50 of drug-resistant cell line/IC50 of parental cell line, U2932-R vs U2932) it was 5.14. Also, the IC50 in assay [1] (drug-resistant cell line SUDHL2-R, CCK8 method, read-out: half maximal inhibitory concentration (IC50)) came to 90.3 µM; in the assay with SUDHL2 cells it was 17.1 µM; in the assay with U2932 cells, 28 µM; in assay [2] (drug-resistant cell line OCI-LY10-R, CCK8 method, read-out: half maximal inhibitory concentration (IC50)) it was 118 µM; in assay [3] (drug-resistant cell line U2932-R, CCK8 method, read-out: half maximal inhibitory concentration (IC50)) it was 144 µM; in the assay on OCI-LY10 cells, 22.5 µM.
